Assay [1] deals with Streptococcus pneumoniae CMCC 31203. Kind of assay: In vivo antibacterial test, survival of infected BALB/c mice. As to conditions: BALB/c mice infected i.p. with Streptococcus pneumoniae, 5 mg per kg s.c. via neck for 3 consecutive days, deaths recorded until the seventh day; for responders at 5 mg/kg: CMCC31203, sc, 168 h, read-out: Animal survival rate.
Assay [2] concerns Staphylococcus aureus CVCC26003. Kind of assay: MIC by mini broth dilution technique (in vitro susceptibility). It counts as cell-based. As to conditions: Staphylococcus aureus CVCC26003; broth dilution; read-out: MIC values Staphylococcus aureus CVCC26003. How it is done:
(§1) in vitro tests of susceptibility of the compounds according to the present disclosure against bacterial strains commonly used in laboratories. In accordance with the Performance Standards for Antimicrobial Disk Susceptibility Tests: Approved Standard published by the US National Committee for Clinical Laboratory Standards, the antibactetial activities of compounds prepared according to examples 5 to 187 were tested. The MICs (minimum inhibitory concentration) of the medicaments prepared according to the examples on the following bacterial strains were measured through mini broth dilution technique. Staphylococcus aureus CVCC26003, Streptococcus equines CVCC556. Actinobacillus pleuropneumoniae CVCC262, Haemophilus parasuis, and Pasteurella multocida CVCC399, which were purchased from the Control Institute of Veterinary Bioproducts and Pharmaceuticals, China. Liquid culture medium: CAMHB. […] Solid culture medium: NINA prepared according to the specification of the final product. The strains were taken out of a regrigerator at −20° C. to be revived, and were spreaded by streaking on the solid culture medium with an inoculating loop. The inoculated culture medium was cultured at 35° C. in a constant temperature incubator for 20 h. Monoclonal antibodies were selected from a well-grown culture plate and streaked on the solid culture medium. The inoculated culture medium was cultured at 35° C. in the constant temperature incubator for 20 h. […] A 96-well plate was used, and 100 μl of DMSO was added into each of wells 2 to 11, and 200 μl of ready-prepared medicament solution was added into the 1st well, 100 μl of the medicament solution was extracted from the 1st well and added into the 2nd well. Double dilution was performed until the 11th well, thereby forming 11 gradients. In this case, compound of parent plate was prepared. 3 μl of double diluted medicament solution was extracted with a 12-channel pipettor and added into wells 1-11 of a new disposable 96-well culture plate. The 12th well thereof is a controll well. For each medicament, there are two adjacent rows which are parallel. The transferred compound plate was reserved for later use. […] The dilution ratio was recorded, and the bacterial liquid for the tests was diluted according to the recorded dilution ratio. Subsequently, the bacterial suspension and the liquid culture medium were diluted in the proportion of 1:200. The diluted solution was reserved for later use.
(In general: Broth dilution looks for growth in wells or tubes with falling amounts of substance.)

Assay [3] concerns Pasteurella multocida CVCC399. The description is as above. To be noted: Pasteurella multocida CVCC399; broth dilution; read-out: MIC values Pasteurella multocida CVCC399. The assay is classed as cell-based. How it is done: as §1, with “medium:” for “medium: CAMHB.”, “NINA prepared according to the specification of the final product.” left out
Assay [4] relates to Actinobacillus pleuropneumoniae CVCC262. The description is as above. The assay is classed as cell-based. As to conditions: Actinobacillus pleuropneumoniae CVCC262, broth dilution; for MIC: read-out: MIC values Actinobacillus pleuropneumoniae CVCC262. How it is done: as §1, with “medium:” for “medium: CAMHB.”, “NINA prepared according to the specification of the final product.” left out

Assay [5] deals with Streptococcus equines CVCC556. The assay is described as above. The assay is classed as cell-based. As to conditions: Streptococcus equines CVCC556; broth dilution; read-out: MIC values Streptococcus equines CVCC556. How it is done: as §1, with “medium:” for “medium: CAMHB.”, “NINA prepared according to the specification of the final product.” left out
The next assay relates to Haemophilus parasuis. The description is as above. To be noted: Glaesserella parasuis; Haemophilus parasuis; broth dilution; read-out: MIC values Haemophilus parasuis. The assay is classed as cell-based. How it is done: as §1, with “medium:” for “medium: CAMHB.”, “NINA prepared according to the specification of the final product.” left out

Values after ≈ are worked out from the molar mass of the structure shown. A value given as a limit tells only on which side of the number the result lay.

The term MIC denotes the lowest concentration that inhibits growth of the organism.

Take `CCCNC[C@]1(O)[C@H](C)O[C@@H](O[C@H]2[C@H](C)[C@@H](O[C@@H]3O[C@H](C)C[C@H](N(C)C)[C@H]3O)[C@](C)(O)C[C@@H](C)NC[C@H](C)[C@@H](O)[C@](C)(O)[C@@H](CC)OC(=O)[C@@H]2C)C[C@@]1(C)OC` [syzx-1]: the Animal survival rate in assay [1] is given as 80% (8/10).
`CCCCNC[C@]1(O)[C@H](C)OC(O[C@@H]2[C@@H](C)[C@@H](O[C@@H]3O[C@H](C)C[C@H](N(C)C)[C@H]3O)[C@](C)(O)C[C@@H](C)NC[C@@H](C)[C@H](O)[C@](C)(O)[C@H](CC)OC(=O)[C@@H]2C)C[C@@]1(C)OC` (stereo partly drawn) [syzx-2]: the MIC in assay [2] stood at 4 µg/mL (≈ 4.88 µM); in assay [3], 2 µg/mL (≈ 2.44 µM); in assay [4], 1 µg/mL (≈ 1.22 µM); in assay [5], 2 µg/mL (≈ 2.44 µM); in the assay with Haemophilus parasuis, 2 µg/mL (≈ 2.44 µM). For the same compound, in assay [1], the responders at 5 mg/kg came out at 80%.
Turning to `CC[C@@H]1OC(=O)[C@H](C)[C@H](OC2C[C@@](C)(OC)[C@](O)(CN(CC)CC)[C@H](C)O2)[C@@H](C)[C@@H](O[C@@H]2O[C@H](C)C[C@H](N(C)C)[C@H]2O)[C@](C)(O)C[C@@H](C)NC[C@@H](C)[C@H](O)[C@]1(C)O` (stereo partly drawn) [syzx-3, (2R,3S,4R,5S,8R,10R,11R,12S,13S,14R)-13-[(2,6-dideoxy-3-C -methyl-3-O-methyl-4-C-[(diethylamino)methyl]-α-L-ribopyranosyl)oxy]-2-ethyl-3,4,10-trihydroxy-3,5,8,10,12,14-hexamethyl-11-[[3,4,6-trideoxy-3-(dimethylamino)-β-D-xylo-hexopyranosy]oxy]-1-oxa-7-azacyclopentadecan-15-one], the MIC in assay [2] turned out to be 0.5 µg/mL (≈ 0.61 µM); in assay [3], 0.125 µg/mL (≈ 0.152 µM); in assay [4], 1 µg/mL (≈ 1.22 µM); in assay [5] it was 0.125 µg/mL (≈ 0.152 µM); with Haemophilus parasuis, 0.125 µg/mL (≈ 0.152 µM). For the same compound, in assay [1], the responders at 5 mg/kg was 70%.
Regarding `CC[C@@H]1OC(=O)[C@H](C)[C@H](OC2C[C@@](C)(OC)[C@](O)(CN3CCOCC3)[C@H](C)O2)[C@@H](C)[C@@H](O[C@@H]2O[C@H](C)C[C@H](N(C)C)[C@H]2O)[C@](C)(O)C[C@@H](C)NC[C@@H](C)[C@H](O)[C@]1(C)O` (stereo partly drawn) [syzx-5, (2R,3S,4R,5S,8R,10R,11R,12S,13S,14R)-13-[(2,6-dideoxy-3-C-methyl-3-O-methyl-4-C-[(morpholinyl)methyl]-α-L-ribopyranosyl)oxy]-2-ethyl-3,4,10-trihydroxy-3,5,8,10,12,14-hexamethyl-11-[[3,4,6-trideoxy-3-(dimethylamino)-β-D-xylo-hexopyranosy]oxy]-1-oxa-7-azacyclopentadecan-15-one], the MIC in assay [2] was 0.5 µg/mL (≈ 0.599 µM); in assay [3], 0.5 µg/mL (≈ 0.599 µM); in assay [4], 16 µg/mL (≈ 19.2 µM); in assay [5], ≤ 0.25 µg/mL; in the assay with Haemophilus parasuis, 0.5 µg/mL (≈ 0.599 µM). In addition, in assay [1], the responders at 5 mg/kg is 70%.
As for `CC[C@@H]1OC(=O)[C@H](C)[C@H](OC2C[C@@](C)(OC)[C@](O)(CNC3CC3)[C@H](C)O2)[C@@H](C)[C@@H](O[C@@H]2O[C@H](C)C[C@H](N(C)C)[C@H]2O)[C@](C)(O)C[C@@H](C)NC[C@@H](C)[C@H](O)[C@]1(C)O` (stereo partly drawn) [syzx-6, (2R3S,4R5S,8R,10R,11R,12S,13S,14R)-13-[(2,6-dideoxy-3-C-methyl-3-O-methyl-4-C-[(cyclopropylamino)methyl]-α-L-ribopyranosyl)oxy]-2-ethyl-3,4,10-trihydroxy-3,5,8,10,12,14-hexamethyl-11-[[3,4,6-trideoxy-3-(dimethylamino)-β-D-xylo-hexopyranosy]oxy]-1-oso-7-azacyclopentadecan-15-one], the MIC (in assay [2]; in assay [3]; in assay [4]; in assay [5]; in the assay with Haemophilus parasuis) was 0.125 µg/mL (≈ 0.155 µM) throughout. In assay [1], the responders at 5 mg/kg came to 80%.
Consider `CCNC[C@]1(O)[C@H](C)OC(O[C@@H]2[C@@H](C)[C@@H](O[C@@H]3O[C@H](C)C[C@H](N(C)C)[C@H]3O)[C@](C)(O)C[C@@H](C)NC[C@@H](C)[C@H](O)[C@](C)(O)[C@H](CC)OC(=O)[C@@H]2C)C[C@@]1(C)OC` (stereo partly drawn) [syzx-10, (2R,3S,4R,5S,8R,10R,11R,12S,13S,14R)-13-[(2,6-dideoxy-3-C-methyl-3-O-methyl-4-C-[(ethylamino)methyl]-α-L-ribopyranosyl)oxy]-2-ethyl-3,4,10-trihydroxy-3,5,8,10,12,14-hexamethyl-11-[[3,4,6-trideoxy-3-(dimethylamino)-β-D-xylo-hexopyranosy]oxy]-1-oxa-7-azacycopentadecan-15-one], for which the minimum inhibitory concentration (MIC) in assay [2] is 0.5 µg/mL (≈ 0.631 µM); in assay [3], ≤ 0.25 µg/mL; in assay [4] it was 0.5 µg/mL (≈ 0.631 µM); in assay [5], 0.5 µg/mL (≈ 0.631 µM); with Haemophilus parasuis it was 1 µg/mL (≈ 1.26 µM). Besides, in assay [1], the responders at 5 mg/kg came out at 90%.
Consider `CC[C@@H]1OC(=O)[C@H](C)[C@H](OC2C[C@@](C)(OC)[C@](O)(CNCCOC)[C@H](C)O2)[C@@H](C)[C@@H](O[C@@H]2O[C@H](C)C[C@H](N(C)C)[C@H]2O)[C@](C)(O)C[C@@H](C)NC[C@@H](C)[C@H](O)[C@]1(C)O` (stereo partly drawn) [syzx-25, (2R,3S,4R,5S,8R,10R,11R,12S,13S,14R)-13-[(2,6-dideoxy-3-C-methyl-3-O-methyl-4-C-[(2-methoxyethyl)amino-methyl]-α-L-ribopyranosyl)oxy]-2-ethyl-3,4,10-trihydroxy-3,5,8,10,12,14-hexamethyl-11-[[3,4,6-trideoxy-3-(dimethylamino)-β-D-xylo-hexopyranosy]oxy]-1-oxa-7-azacyclopentadecan-15-one], for which the MIC in assay [2] is ≤ 0.25 µg/mL; in assay [3] it was ≤ 0.25 µg/mL; in assay [4], 16 µg/mL (≈ 19.5 µM); in assay [5] it was ≤ 0.25 µg/mL; in the assay with Haemophilus parasuis it was ≤ 0.25 µg/mL.
As to `CC[C@@H]1OC(=O)[C@H](C)[C@H](OC2C[C@@](C)(OC)[C@](O)(CNCCOC)[C@H](C)O2)[C@@H](C)[C@@H](O[C@@H]2O[C@H](C)C[C@H](N(C)C)[C@H]2O)[C@](C)(O)C[C@@H](C)NC[C@@H](C)[C@H](O)[C@]1(C)O` (stereo partly drawn) [syzx-58], in assay [1], the responders at 5 mg/kg came to 80%. The “MIC values Actinobacillus pleuropneumoniae CVCC262” value in assay [4] was 16 ug/mi.
As to `CCCNC[C@]1(O)[C@H](C)O[C@@H](O[C@H]2[C@H](C)[C@@H](O[C@@H]3O[C@H](C)C[C@H](N(C)C)[C@H]3O)[C@](C)(O)C[C@@H](C)N(CCC)C[C@H](C)[C@@H](O)[C@](C)(O)[C@@H](CC)OC(=O)[C@@H]2C)C[C@@]1(C)OC` [syzx-101, (2R,3S,4R,5S,8R,10R,11R,12S,13S,14R)-13-[(2,6-dideoxy-3-C-methyl-3-O-methyl-4-C-[(n-propyl-amino)methyl]-α-L-ribopyranosyl)oxy]-2-ethyl-3,4,10-trihydroxy-3,5,8,10,12,14-hexamethyl-7-propyl-11-[[3,4,6-trideoxy-3-(dimethylamino)-β-D-xylo-hexopyranosy]oxy]-1-oxa-7-azacyclopentadecan-15-one], the Animal survival rate in assay [1] was 90% (9/10).

Source of the values: patent US20160304547A1, “MACROLIDE COMPOUND” (PULIKE BIOLOGICAL ENGINEERING, INC, priority 2013, published 2016).
